Earlier results as cited in patent US6663884B2, “Method of detoxifying the egg of puffer fish for creating healthy foodstuffs and the resulting product” (priority 2002, dated 2003).

NC1=N[C@H](O)[C@H]2[C@H]3O[C@]4(O)O[C@@H]([C@@H](O)[C@@]2(N1)[C@@H]4O)[C@]3(O)CO [tetrodotoxin]
solubility in water: soluble in water
